The EC50 is the concentration that produces a half-maximal response. As usually defined, the Emax is the size of the effect at its maximum, as opposed to the concentration needed.

The target of data set [1] is T1, human 5-HT2C receptor (Homo sapiens, UniProt P28335).
T1 construct: purchased Biosignal Packard, USA; host or cells: CHO cell membranes
T1 sequence (P28335 33-458): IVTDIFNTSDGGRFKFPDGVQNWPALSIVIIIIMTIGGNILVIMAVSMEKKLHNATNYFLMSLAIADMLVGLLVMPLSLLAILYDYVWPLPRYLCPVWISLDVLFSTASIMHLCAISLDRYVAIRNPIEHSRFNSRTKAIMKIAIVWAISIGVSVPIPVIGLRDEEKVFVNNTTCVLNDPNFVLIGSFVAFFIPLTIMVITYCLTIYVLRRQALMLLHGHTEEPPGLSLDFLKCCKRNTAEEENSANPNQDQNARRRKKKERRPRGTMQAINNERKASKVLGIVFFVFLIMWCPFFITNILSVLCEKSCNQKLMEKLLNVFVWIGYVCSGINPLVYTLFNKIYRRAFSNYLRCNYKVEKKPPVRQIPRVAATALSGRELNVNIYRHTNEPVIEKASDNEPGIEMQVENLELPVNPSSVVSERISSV
As to the kind of experiment: 3H-Mesulergine binding to hr5-HT2C CHO cell membranes. The following applies: 3H-Mesulergine 1 nM, kind of constant not given. The procedure: Non-specific binding is evaluated in the presence of 1 μM Mesulergine. Fifty μL each of membrane, ligand and compound in a total volume of […] are incubated in 96-well plates for 60 min at 22° C. in a buffer containing 50 mM Tris, 0.1% ascorbic acid, 10 μM Pargyline, pH 7.7. The plates are filtrated, washed 3 times in ice-cold 50 mM Tris, dried and measured in Topcount.

The target in data set [2] is T2, human adrenergic Alpha1A (α1A AR) (Homo sapiens, UniProt P35348).
T2 sequence (P35348 1-466): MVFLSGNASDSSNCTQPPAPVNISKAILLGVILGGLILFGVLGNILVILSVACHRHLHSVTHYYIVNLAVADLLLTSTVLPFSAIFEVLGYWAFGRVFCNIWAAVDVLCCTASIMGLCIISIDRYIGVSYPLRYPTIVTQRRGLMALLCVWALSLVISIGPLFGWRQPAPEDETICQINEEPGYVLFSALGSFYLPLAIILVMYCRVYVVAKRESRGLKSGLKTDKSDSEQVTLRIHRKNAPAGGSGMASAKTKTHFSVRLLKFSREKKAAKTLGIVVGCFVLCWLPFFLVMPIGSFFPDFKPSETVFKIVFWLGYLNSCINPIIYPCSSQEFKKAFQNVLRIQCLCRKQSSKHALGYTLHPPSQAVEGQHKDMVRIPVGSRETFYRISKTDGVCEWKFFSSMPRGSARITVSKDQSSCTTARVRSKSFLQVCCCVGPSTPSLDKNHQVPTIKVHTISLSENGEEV
The data set is described as follows: Ca2+ FLIPR assay in human adrenergic Alpha1A CHO-K1 cell line (Test 1). The note with it: read-out: CHO cells EC50 α1A AR. It is filed as cell-based.
Method: Compounds acting as agonists induce a transient increase of intracellular calcium. This was recorded on the FLIPR system. A measurement of the signal baseline was first recorded every second for 2 minutes before the injection of the compounds. […] Low controls (unstimulated cells) were determined with the addition of 5 μL of assay buffer.

Data set [3] addresses human β1 adrenoceptor (β1 AR) (Homo sapiens, UniProt P08588). As to the kind of experiment: cAMP response in CHO cells stably transfected with human β1 adrenoceptor (Test 1).
Data set [4] concerns the target T3, Serotonin 5-HT2C receptor (Homo sapiens, UniProt P28335).
T3 construct: expressed in transfected cells; host or cells: CHO-K1 cells coexpressing mitochondrial apoaequorin and Gα16
T3 sequence (P28335 33-458): T1 sequence (P28335 33-458)
The data set is described as follows: Aequorin agonist assay in CHO-K1 cells expressing Serotonin 5-HT2C. Type of data set: cell-based. The following applies: aequorin luminescence, agonist mode.
Method: CHO-K1 cells coexpressing mitochondrial apoaequorin, recombinant Serotonin 5-HT2Cne and the promiscuous G protein Gα16, grown to mid-log phase in culture media without antibiotics were detached with PBS-EDTA, centrifuged and resuspended in assay buffer (DMEM/HAM's F12 with HEPES, without phenol red+0.1% BSA protease free) at a concentration of 1×10^6 cells/ml. Cells were incubated at room temperature for at least 4 h with coelenterazine h. […] For agonist testing, 50 μL of cell suspension were mixed with 50 μL of test or reference agonist in a 96-well plate. The resulting emission of light is recorded using Hamamatsu Functional Drug Screening System 6000 (FDSS 6000) luminometer. Agonist activity of test compound was expressed as a percentage of the activity of the reference agonist at its EC100 concentration.

In data set [5] the target is human β2 adrenoceptor (β2 AR) (Homo sapiens, UniProt P07550). The data set is described as follows: cAMP response in CHO cells stably transfected with human β2 adrenoceptor (Test 1).
human β2 adrenoceptor (β2 AR), sequence (P07550 whole entry): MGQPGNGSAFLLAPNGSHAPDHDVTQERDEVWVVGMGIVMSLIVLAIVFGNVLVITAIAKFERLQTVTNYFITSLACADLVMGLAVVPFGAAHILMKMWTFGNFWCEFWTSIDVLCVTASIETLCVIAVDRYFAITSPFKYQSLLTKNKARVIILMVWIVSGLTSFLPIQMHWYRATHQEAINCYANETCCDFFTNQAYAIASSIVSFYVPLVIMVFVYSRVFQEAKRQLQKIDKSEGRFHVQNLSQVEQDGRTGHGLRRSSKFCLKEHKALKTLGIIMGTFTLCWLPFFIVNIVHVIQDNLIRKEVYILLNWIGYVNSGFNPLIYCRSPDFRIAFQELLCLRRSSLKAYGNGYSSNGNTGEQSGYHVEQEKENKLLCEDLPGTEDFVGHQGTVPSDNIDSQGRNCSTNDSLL
Data set [6] is described as follows: Comparative solubility in H2O with pH adjustment. Type of data set: physicochemical. As for the experimental part:
The relative solubilities of the free base form and the acetate and glycolate salt forms of Compound A were analysed and the results are show in the table below. Solutions were titrated with addition of HCl or NaOH for pH adjustment. The improved aqueous solubilities of the acetate and glycolate salt forms relative to the free base form of Compound A make the acetate and glycolate salts of Compound A more suitable for subcutaneous injection or infusion.

The test system of data set [7] is Male Wistar Han IGS rats. Type of data set: in vivo. The note with it: rat, s.c. minipump 4 weeks; formoterol 0.003-0.03, Compound A 0.01-0.1 mg/kg/day.
Method: Male Wistar Han IGS (International Genetic Standard) rats (Crl:WI(Han)) at the weight of 350-400 g were purchased from Charles River Laboratories. Rats were acclimated to the facility for 7 days. Animals were housed in groups of 3 animals at 25° C. with a 12:12 h light-dark cycle. They were fed a standard laboratory diet containing 18.2% protein and 3.0% fat with an energy content of 15.8 MJ/kg (NAFAG 3890, Kliba, Basel, Switzerland). Food and water were provided ad libitum. […] Pumps were filled with the solution and kept for several hours at 37° C. in PBS until surgical implantation. Rats were treated subcutaneously with Temgesic at a dose of 0.02 mg/kg with a volume of 1 ml/kg at least 30 minutes before surgery, and then the pumps filled with the solution indicated above were implanted subcutaneously into the back of the rats under anesthesia with isoflurane at a concentration of 3%. Temgesic was administered subcutaneously to the rats 24 h and 48 h after the surgery. Body weights were measured twice per week. Clips were removed 10 days after the surgery under anesthesia. Four weeks after the treatment, the rats were euthanized with CO2, and the tibialis anterior, gastrocnemius and soleus muscles, heart and brain were dissected and weighed. Brain weight was used for normalization of organ weights. Results are expressed as mean +/−SEM. […]
The subject of data set [8] is Wistar Han rats. The data set is described as follows: Heart rate in vivo in rats after s.c. bolus. The note with it: rat, s.c. bolus up to 0.3 mg/kg. The text has this:
Wistar Han (W-H) IGS (International Genetic Standard) rats (Crl:WI(Han)) were purchased from Charles River Laboratories. Femoral arterial and venous catheters were chronically implanted and exteriorized through a spring tether-swivel system and housed in specialized cages. Arterial catheter was connected to a pressure transducer to continuously measure pulse pressure, mean arterial pressure and heart rate, which was derived from the blood pressure signal, via a digital data acquisition system. Compounds were administered via s.c catheter implanted through the skin buttun. Values are expressed as means±SEM (n=3).

Data set [9] has as its system left atria from Dunkin Hartley Guinea pig. As to the kind of experiment: Left atrium contraction assay (Ricerca, Adrenergic beta1).
Data set [10] has as its system Rhesus monkeys. The data set is described as follows: Heart rate in vivo in rhesus monkeys after s.c. bolus. The note with it: rhesus monkey, s.c. bolus up to 0.03 mg/kg. As for the experimental part:
Rhesus monkeys, 24 females with body weight around 4 to 8 kg, were randomized into 4 groups of n=6. The animals were restrained on a chair up to 4 hours after single subcutaneous administration of compounds, and then returned to their pens. Heart rates were measured using a Surgivet V3304 device. Values are expressed as means±SEM (n=6).

Counter-ions that a name gives are not always drawn. Some results are limits rather than exact numbers.

human β1 adrenoceptor (β1 AR), sequence (P08588 whole entry): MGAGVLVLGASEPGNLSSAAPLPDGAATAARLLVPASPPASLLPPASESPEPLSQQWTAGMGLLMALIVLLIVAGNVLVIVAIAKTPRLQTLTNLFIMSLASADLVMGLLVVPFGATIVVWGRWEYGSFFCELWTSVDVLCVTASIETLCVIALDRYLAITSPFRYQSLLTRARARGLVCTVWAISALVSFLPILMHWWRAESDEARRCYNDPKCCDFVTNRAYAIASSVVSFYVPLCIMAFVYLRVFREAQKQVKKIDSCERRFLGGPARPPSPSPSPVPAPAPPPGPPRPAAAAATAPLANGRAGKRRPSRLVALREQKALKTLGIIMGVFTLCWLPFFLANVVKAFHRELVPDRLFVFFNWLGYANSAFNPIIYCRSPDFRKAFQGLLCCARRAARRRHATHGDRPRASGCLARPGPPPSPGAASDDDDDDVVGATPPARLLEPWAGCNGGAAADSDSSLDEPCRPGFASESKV

Regarding `CCCCOc1ccc(CC(C)(C)NC[C@@H](O)c2cc(O)cc3[nH]c(=O)sc23)cc1` [Compound B (S)], in data set [1], the “Serotonin 5-HT2C Binding” value worked out at 0.8 µM. The EC50 was greater than 30000 nM in [2], greater than 10000 nM in data set [3], 19.7 nM in data set [4] and 950 nM in data set [5].

With `CCCCOc1ccc(CC(C)(C)NC[C@H](O)c2cc(O)cc3[nH]c(=O)sc23)cc1.O=C(O)CO` [Compound A glycolate salt], the results for the “solubility in H2O, Conc” value in data set [6] (pH 5.1), in data set [6] (pH 5.3) and in data set [6] (pH 5.4) were 13100 µg/mL, 6390 µg/mL and 4470 µg/mL, respectively.

Turning to `CCCCOc1ccc(CC(C)(C)NC[C@H](O)c2cc(O)cc3[nH]c(=O)sc23)cc1` [Compound A, (R)-7-(2-(1-(4-butoxyphenyl)-2-methylpropan-2-ylamino)-1-hydroxyethyl)-5-hydroxybenzo[d]thiazol-2(3H)-one], the “Serotonin 5-HT2C Binding” value in [1] amounted to 11 µM. Moreover, in data set [7], the “skeletal muscle mass and heart mass increase (FIG. 1)” value is recorded as “induces skeletal muscle hypertrophy with minimum impact on heart mass”. Moreover, the heart rate increase result in data set [8] is reported as “less heart rate increases compared to formoterol”; in data set [10] it was “less heart rate increase compared to formoterol”. Further, the EC50 in data set [9] (Cavia porcellus, guinea pig left atria, n = 2) is greater than 10000 nM. The “effects on left atrium contraction” value in data set [9] (up to 10 μM) is reported as “no effects”. For the same compound, the “solubility in H2O, Conc” value in data set [6] (pH 7.3) and in data set [6] (pH 7.8) was less than 10 µg/mL throughout.

For `CCCCOc1ccc(CC(C)(C)NCC(O)c2cc(O)cc3[nH]c(=O)sc23)cc1` (racemic) [Compound A/B], in data set [1], the “Serotonin 5-HT2C Binding” value was found to be 1.7 µM. Besides, the concentration giving a half-maximal response (EC50) in data set [3] was 684 nM; in data set [4], 25 nM; in [5] it was 11 nM.

Consider `CCCCOc1ccc(CC(C)(C)NC[C@H](O)c2cc(O)cc3[nH]c(=O)sc23)cc1` [Compound A (R) acetate salt, (R)-7-(2-(1-(4-butoxyphenyl)-2-methylpropan-2-ylamino)-1-hydroxyethyl)-5-hydroxybenzo[d]thiazol-2(3H)-one acetate salt], for which the Emax in data set [5] (CHO, read-out: CHO cells Emax % β2 AR, cAMP, compared to isoprenaline) is 91%.
